Experimental data reported in US10344054B2, “Angiotensin-1-receptor antagonists” (Ferring B.V., priority 2016, dated 2019).
Residues, ends and D or L forms follow the SMILES beside them.

Tests used:
[1] = biological target: T1, hAT1R (Homo sapiens, UniProt P30556); assay: FLIPR calcium flux assay, Part I: agonist activity; assay type: cell-based; settings: ChanTest hAT1R stable cells; % MPE, percent of the maximal possible effect; read-out: hAT1R Agonist Efficacy Agonist (%) Ave
T1 sequence (P30556 1-359): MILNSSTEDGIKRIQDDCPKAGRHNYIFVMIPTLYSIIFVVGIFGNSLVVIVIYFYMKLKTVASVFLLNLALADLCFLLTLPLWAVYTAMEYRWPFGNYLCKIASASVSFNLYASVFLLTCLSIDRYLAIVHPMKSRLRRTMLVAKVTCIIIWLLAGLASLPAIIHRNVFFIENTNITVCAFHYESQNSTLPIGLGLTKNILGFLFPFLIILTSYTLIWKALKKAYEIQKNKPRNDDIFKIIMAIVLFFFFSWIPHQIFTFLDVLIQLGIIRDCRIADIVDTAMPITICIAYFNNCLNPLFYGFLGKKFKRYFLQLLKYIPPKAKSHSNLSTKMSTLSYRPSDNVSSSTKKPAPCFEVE
Experimental: (§1) AT1 receptor (AT1R) agonists increase intracellular flux of calcium ions. AT1R antagonists can reduce the agonist effect. […] Compounds were first tested for agonism (Part I) followed by addition of the AT1R agonist angiotensin II to test for antagonist activity (Part II). This assay used a stable hAT1R expressing cell line (ChanTest hAT1R; ChanTest Corp A628). Intracellular flux of calcium in response to agonist was measured through real-time measurement of fluorescence induced through the interaction of Ca2+ (released from intracellular stores) and calcium-sensitive dye. In Part I, cells were exposed to varying concentrations of test compounds and immediately measured for agonist activity (EC50 and Efficacy).
(§2) ChanTest hAT1R stable cells were maintained in Ham's F12 containing 10% (v/v) heat inactivated fetal bovine serum (FBS-HI), 4 mM Glutamax, 1% NEAA, 50 ng/mL plasmocin, 400 μg/mL G418 at 37° C. under 5% CO2 in a humidified atmosphere.
(§3) For FLIPR assay, ChanTest hAT1R cells were trypsinized with 6 ml of Trypsin EDTA solution and harvested in phenol-red free DMEM containing 10% FBS-HI, 4 mM Glutamax and counted, spun down and resuspended in the same medium. The cell suspension was added to the wells of 384-well black PDL clear bottom plates at 2.5×10^4 cells/well, 20 μl/well.
(§4) Preparation of Loading Buffer:
(§5) • Loading Buffer: 1 vial of Calcium 5 Bulk Assay reagent was dissolved in 100 ml of 1× HBSS-20 mM Hepes buffer. • Probenecid was resuspended at 1 M in 1 M NaOH. Once the probenecid had gone into solution, an equal volume of H2O was added to make a solution of 500 mM followed by a 1:100 dilution in the Loading Buffer for a working concentration of 5 mM. The pH was adjusted to 7.4 using 1 M NaOH. Loading the Cells with Loading Buffer • Cell plates were removed from the incubator and 25 μl of Loading Buffer containing probenecid (5 mM) added to each well. • Plates were incubated for 1 hour at 37° C. under 5% CO2 in a humidified atmosphere. […] The remaining steps of the assay were carried forward by FLIPR Tetra. A baseline reading was taken at 1-second (s) intervals for 10 s followed by the addition of 5 μl of 10× compounds. The compound-induced fluorescence signal was then measured for 3 minutes with readings taken at 1-s intervals. • The cell plate was removed from the FLIPR and set aside for an additional 17 minutes. • The cell plate was then transferred back to the FLIPR Tetra, along with the 384 well Angiotensin II agonist dilution plate. A baseline reading was taken at 1-second (s) intervals for 10 seconds, followed by the addition of 5.5 μl of 10× Angiotensin II agonist. The agonist-induced fluorescence signal was then measured for 3 minutes with readings taken at 1-s intervals. • Overall, each well in the FLIPR assay was composed of the following components in a total volume of 55.5 μl:
(§6) Time-course results from the FLIPR Calcium 5 assay were expressed as relative fluorescence light units (RFU). The maximum minus minimum values (Max−Min) were used to quantify the strength of the signal. Mean RFU were calculated from replicate values and plotted on the y-axis versus compound concentration on a logarithmic scale on the x-axis, and a single-binding site, four parameter concentration response model: (MIN+((MAX−MIN)/(1+((EC50/x)^Hill)))), was used to perform non-linear regression analysis, generating concentration response curves. Reported parameters included agonist potency EC50 (the concentration causing half-maximal agonist response), antagonist potency IC50 (the concentration causing half-maximal inhibition of the agonist response for antagonist compounds) and efficacy (% MPE: percent of the maximal possible effect).

[2] = biological target: T1, hAT1R; assay: FLIPR calcium flux assay, Part II: antagonist activity against Angiotensin II; assay type: cell-based; settings: for Emax: read-out: hAT1R Antagonist Efficacy Antag (%) Ave; for IC50: read-out: hAT1R Antagonist IC50 Ave; as to hAT1R Antagonist Efficacy Antag (%) Ave: Angiotensin II 10 nM final concentration
Experimental: as §1, §2, §3, §4, §5, §6

| SMILES | Emax [1] | Emax [2] | IC50 [2] |
| --- | --- | --- | --- |
| CNCC(=O)N[C@@H](CCCNC(=N)N)C(=O)N[C@H](C(=O)N[C@@H](Cc1ccc(O)cc1)C(=O)N[C@H](C(=O)N[C@@H](Cc1c[nH]cn1)C(=O)N1CCC[C@H]1C(=O)N[C@H](Cc1cccc2ccccc12)C(=O)O)C(C)C)C(C)C [Compound 1, Sar-Arg-Val-Tyr-Val-His-Pro-(D-1Nal)-OH] (HELM PEPTIDE1{[Sar].R.V.Y.V.H.P.[O=C(O)[C@@H](Cc1cccc2ccccc12)N[*:1]]}$$$$V2.0) | 5% | 99% | 10.6 nM |
| CNCC(=O)N[C@@H](CCCNC(=N)N)C(=O)N[C@H](C(=O)N[C@@H](Cc1ccc(O)cc1)C(=O)N[C@@H](CCCCN)C(=O)N[C@@H](Cc1c[nH]cn1)C(=O)N1CCC[C@H]1C(=O)N[C@H](Cc1cccc2ccccc12)C(=O)O)C(C)C [Compound 2, Sar-Arg-Val-Tyr-Lys-His-Pro-(D-1Nal)-OH] (HELM PEPTIDE1{[Sar].R.V.Y.K.H.P.[O=C(O)[C@@H](Cc1cccc2ccccc12)N[*:1]]}$$$$V2.0) | 1% | 100% | 16.5 nM |
| CNCC(=O)N[C@@H](CCCNC(=N)N)C(=O)N[C@H](C(=O)N[C@@H](Cc1ccc(O)cc1)C(=O)N[C@H](C(=O)N[C@@H](Cc1c[nH]cn1)C(=O)N1CCC[C@H]1C(=O)N[C@H](Cc1ccccc1-c1ccccc1)C(=O)O)C(C)C)C(C)C [Compound 6, Sar-Arg-Val-Tyr-Val-His-Pro-(D-Phe(2-Ph))—OH] (HELM PEPTIDE1{[Sar].R.V.Y.V.H.P.[O=C(O)[C@@H](Cc1ccccc1-c1ccccc1)N[*:1]]}$$$$V2.0) | 10% | 99% | 16.6 nM |
| CNCC(=O)N[C@@H](CCCNC(=N)N)C(=O)N[C@H](C(=O)N[C@@H](Cc1ccc(O)cc1)C(=O)N[C@H](C(=O)N[C@@H](Cc1c[nH]cn1)C(=O)N1CCC[C@H]1C(=O)N[C@H](Cc1ccc(Cl)cc1Cl)C(=O)O)C(C)C)C(C)C [Compound 7, Sar-Arg-Val-Tyr-Val-His-Pro-(D-Phe(2,4-diCl))—OH] (HELM PEPTIDE1{[Sar].R.V.Y.V.H.P.[O=C(O)[C@@H](Cc1ccc(Cl)cc1Cl)N[*:1]]}$$$$V2.0) | 12% | 99% | 6.4 nM |
| CNCC(=O)N[C@@H](CCCNC(=N)N)C(=O)N[C@H](C(=O)N[C@@H](Cc1ccc(O)cc1)C(=O)N[C@H](C(=O)N[C@@H](Cc1c[nH]cn1)C(=O)N1CCC[C@H]1C(=O)N[C@H](Cc1c(C)cccc1C)C(=O)O)C(C)C)C(C)C [Compound 8, Sar-Arg-Val-Tyr-Val-His-Pro-(D-Phe(2,6-diMe))—OH] (HELM PEPTIDE1{[Sar].R.V.Y.V.H.P.[Cc1cccc(C)c1C[C@@H](N[*:1])C(=O)O]}$$$$V2.0) | 3% | 101% | 8.5 nM |
| CNCC(=O)N[C@@H](CCCNC(=N)N)C(=O)N[C@H](C(=O)N[C@@H](Cc1ccc(O)cc1)C(=O)N[C@@H](Cc1ccc(O)cc1)C(=O)N[C@@H](Cc1c[nH]cn1)C(=O)N1CCC[C@H]1C(=O)N[C@H](Cc1cccc2ccccc12)C(=O)O)C(C)C [Compound 12, Sar-Arg-Val-Tyr-Tyr-His-Pro-(D-1Nal)-OH] | 5% | 100% | 3.4 nM |
| CNCC(=O)N[C@@H](CCCNC(=N)N)C(=O)N[C@H](C(=O)N[C@@H](Cc1ccc(O)cc1)C(=O)N[C@@H](Cc1ccc(N)cc1)C(=O)N[C@@H](Cc1c[nH]cn1)C(=O)N1CCC[C@H]1C(=O)N[C@H](Cc1cccc2ccccc12)C(=O)O)C(C)C [Compound 13, Sar-Arg-Val-Tyr-Aph-His-Pro-(D-1Nal)-OH] (HELM PEPTIDE1{[Sar].R.V.Y.[Nc1ccc(C[C@H](N[*:1])C(=O)[*:2])cc1].H.P.[O=C(O)[C@@H](Cc1cccc2ccccc12)N[*:1]]}$$$$V2.0) | 7% | 100% | 3.2 nM |

Other lines, results leading:

| Emax [1] | Emax [2] | IC50 [2] | SMILES |
| --- | --- | --- | --- |
| 5% | 99% | 23.6 nM | CNCC(=O)N[C@@H](CCCNC(=N)N)C(=O)N[C@H](C(=O)N[C@@H](Cc1ccc(O)cc1)C(=O)N[C@H](C(=O)N[C@@H](Cc1c[nH]cn1)C(=O)N1CCC[C@H]1C(=O)N[C@H](Cc1ccccc1C(F)(F)F)C(=O)O)C(C)C)C(C)C [Compound 3, Sar-Arg-Val-Tyr-Val-His-Pro-(D-Phe(2-CF3))—OH] (HELM PEPTIDE1{[Sar].R.V.Y.V.H.P.[O=C(O)[C@@H](Cc1ccccc1C(F)(F)F)N[*:1]]}$$$$V2.0) |
| 6% | 99% | 10.7 nM | CNCC(=O)N[C@@H](CCCNC(=N)N)C(=O)N[C@H](C(=O)N[C@@H](Cc1ccc(O)cc1)C(=O)N[C@H](C(=O)N[C@@H](Cc1c[nH]cn1)C(=O)N1CCC[C@H]1C(=O)N[C@H](Cc1ccccc1Cl)C(=O)O)C(C)C)C(C)C [Compound 4, Sar-Arg-Val-Tyr-Val-His-Pro-(D-Phe(2-Cl))—OH] (HELM PEPTIDE1{[Sar].R.V.Y.V.H.P.[O=C(O)[C@@H](Cc1ccccc1Cl)N[*:1]]}$$$$V2.0) |
| 5% | 100% | 59.6 nM | CNCC(=O)N[C@@H](CCCNC(=N)N)C(=O)N[C@H](C(=O)N[C@@H](Cc1ccc(O)cc1)C(=O)N[C@H](C(=O)N[C@@H](Cc1c[nH]cn1)C(=O)N1CCC[C@H]1C(=O)N[C@H](Cc1ccccc1C#N)C(=O)O)C(C)C)C(C)C [Compound 5, Sar-Arg-Val-Tyr-Val-His-Pro-(D-Phe(2-CN))—OH] (HELM PEPTIDE1{[Sar].R.V.Y.V.H.P.[N#Cc1ccccc1C[C@@H](N[*:1])C(=O)O]}$$$$V2.0) |
| 4% | 99% | 13.9 nM | CNCC(=O)N[C@@H](CCCNC(=N)N)C(=O)N[C@H](C(=O)N[C@@H](Cc1ccc(O)cc1)C(=O)N[C@H](C(=O)N[C@@H](Cc1c[nH]cn1)C(=O)N1CCC[C@H]1C(=O)N[C@H](Cc1ccccc1C)C(=O)O)C(C)C)C(C)C [Compound 9, Sar-Arg-Val-Tyr-Val-His-Pro-(D-Phe(2-Me))—OH] (HELM PEPTIDE1{[Sar].R.V.Y.V.H.P.[Cc1ccccc1C[C@@H](N[*:1])C(=O)O]}$$$$V2.0) |
| 5% | 99% | 9.5 nM | CNCC(=O)N[C@@H](CCCNC(=N)N)C(=O)N[C@H](C(=O)N[C@@H](Cc1ccc(O)cc1)C(=O)N[C@H](C(=O)N[C@@H](Cc1c[nH]cn1)C(=O)N1CCC[C@H]1C(=O)N[C@H](Cc1csc2ccccc12)C(=O)O)C(C)C)C(C)C [Compound 10, Sar-Arg-Val-Tyr-Val-His-Pro-(D-(3-benzothienyl)alanine)-OH] (HELM PEPTIDE1{[Sar].R.V.Y.V.H.P.[O=C(O)[C@@H](Cc1csc2ccccc12)N[*:1]]}$$$$V2.0) |
| 4% | 99% | 8.7 nM | CNCC(=O)N[C@@H](CCCNC(=N)N)C(=O)N[C@H](C(=O)N[C@@H](Cc1ccc(O)cc1)C(=O)N[C@H](C(=O)N[C@@H](Cc1c[nH]cn1)C(=O)N1CCC[C@H]1C(=O)N[C@H](Cc1ccccc1Br)C(=O)O)C(C)C)C(C)C [Compound 11, Sar-Arg-Val-Tyr-Val-His-Pro-(D-Phe(2-Br))—OH] (HELM PEPTIDE1{[Sar].R.V.Y.V.H.P.[O=C(O)[C@@H](Cc1ccccc1Br)N[*:1]]}$$$$V2.0) |
